Experimental data reported in PubChem BioAssay (NCI).
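Exposure lasted 48 hours, with cells grown in 96-well plates and compounds tested at five concentrations. Here, GI50 denotes the concentration required for 50% inhibition of growth. TGI denotes the concentration required for complete inhibition of growth.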

What was measured:
Assay in all cases: growth of human tumour cells (NCI), 48 h
[1] = test system: 786-0 renal
[2] = test system: OVCAR-3 ovarian
[3] = test system: NCI-H522 lung
[4] = test system: UACC-257 melanoma
[5] = test system: NCI-H23 lung
[6] = test system: MDA-MB-435
[7] = test system: MOLT-4 leukemia
[8] = test system: MCF7 breast
[9] = test system: COLO 205 colon
[10] = test system: EKVX NSCLC
[11] = test system: OVCAR-4 ovarian
[12] = test system: KM12 colon
[13] = test system: DU-145 prostate
[14] = test system: HOP-92 NSCLC
[15] = test system: SF-268 CNS
[16] = test system: SF-539 CNS
[17] = test system: ACHN renal
[18] = test system: CCRF-CEM leukemia
[19] = test system: A549 NSCLC
[20] = test system: SNB-75 CNS
[21] = test system: UO-31 renal
[22] = test system: SNB-19 CNS
[23] = test system: M14 melanoma
[24] = test system: SF-295 CNS
[25] = test system: HCC-2998 colon
[26] = test system: HT29 colon
[27] = test system: BT-549 breast
[28] = test system: MALME-3M melanoma
[29] = test system: SK-OV-3 ovarian
[30] = test system: HCT-116 colon
[31] = test system: HCT-15 colon
[32] = test system: K-562 leukemia
[33] = test system: NCI-H460 lung
[34] = test system: OVCAR-8 ovarian
[35] = test system: HS 578T breast
[36] = test system: A498 renal
[37] = test system: SR leukemia
[38] = test system: IGROV1 ovarian
[39] = test system: NCI/ADR-RES ovarian
[40] = test system: CAKI-1 renal
[41] = test system: HOP-62 NSCLC
[42] = test system: RPMI-8226 leukemia
[43] = test system: U251 CNS
[44] = test system: SW-620 colon
[45] = test system: MDA-MB-231 breast
[46] = test system: UACC-62 melanoma
[47] = test system: SK-MEL-28 melanoma
[48] = test system: LOX IMVI melanoma
[49] = test system: PC-3 prostate
[50] = test system: NCI-H226 lung
[51] = test system: SK-MEL-2 melanoma
[52] = test system: RXF 393 renal
[53] = test system: SN12C renal
[54] = test system: T-47D breast
[55] = test system: TK-10 renal
[56] = test system: HL-60(TB) leukemia

CCc1cccc2c3c(sc12)C(c1ccc(Cl)cc1)C(C#N)=C(/N=C/c1ccc(Cl)cc1)O3 (configuration not stated)
GI50 [1]: 1630 nM | TGI [1]: > 50000 nM | GI50 [2]: 433 nM | TGI [2]: 25200 nM | GI50 [3]: 206 nM | TGI [3]: 2960 nM | GI50 [4]: 21400 nM | TGI [4]: > 50000 nM | GI50 [5]: 2510 nM | TGI [5]: > 50000 nM | GI50 [6]: 162 nM | TGI [6]: 788 nM | GI50 [7]: 1650 nM | TGI [7]: > 50000 nM | GI50 [8]: 248 nM | TGI [8]: > 50000 nM | GI50 [9]: 1590 nM | TGI [9]: > 50000 nM | GI50 [10]: 1340 nM | TGI [10]: > 50000 nM | GI50 [11]: > 50000 nM | TGI [11]: > 50000 nM | GI50 [12]: 417 nM | TGI [12]: > 50000 nM | GI50 [13]: 1270 nM | TGI [13]: > 50000 nM | GI50 [14]: 7660 nM | TGI [14]: 45500 nM | GI50 [15]: 10900 nM | TGI [15]: > 50000 nM | GI50 [16]: 755 nM | TGI [16]: 2090 nM | GI50 [17]: 779 nM | TGI [17]: > 50000 nM | GI50 [18]: 892 nM | TGI [18]: > 50000 nM | GI50 [19]: 670 nM | TGI [19]: > 50000 nM | GI50 [20]: 104 nM | TGI [20]: 1220 nM | GI50 [21]: 1690 nM | TGI [21]: > 50000 nM | GI50 [22]: 1200 nM | TGI [22]: 15800 nM | GI50 [23]: 582 nM | TGI [23]: > 50000 nM | GI50 [24]: 177 nM | TGI [24]: 806 nM | GI50 [25]: 1080 nM | TGI [25]: > 50000 nM | GI50 [26]: 1200 nM | TGI [26]: > 50000 nM | GI50 [27]: 2360 nM | TGI [27]: > 50000 nM | GI50 [28]: 4720 nM | TGI [28]: > 50000 nM | GI50 [29]: 2790 nM | TGI [29]: > 50000 nM | GI50 [30]: 347 nM | TGI [30]: > 50000 nM | GI50 [31]: 317 nM | TGI [31]: > 50000 nM | GI50 [32]: 234 nM | TGI [32]: > 50000 nM | GI50 [33]: 1020 nM | TGI [33]: > 50000 nM | GI50 [34]: 1600 nM | TGI [34]: > 50000 nM | GI50 [35]: 1180 nM | TGI [35]: 35100 nM | GI50 [36]: 280 nM | TGI [36]: 4920 nM | GI50 [37]: 290 nM | TGI [37]: 36300 nM | GI50 [38]: 377 nM | TGI [38]: > 50000 nM | GI50 [39]: 214 nM | TGI [39]: 8380 nM | GI50 [40]: 1290 nM | TGI [40]: > 50000 nM | GI50 [41]: 2080 nM | TGI [41]: 22300 nM | GI50 [42]: 1060 nM | TGI [42]: > 50000 nM | GI50 [43]: 1660 nM | TGI [43]: 17000 nM | GI50 [44]: 360 nM | TGI [44]: > 50000 nM | GI50 [45]: 2400 nM | TGI [45]: > 50000 nM | GI50 [46]: 306 nM | TGI [46]: 44500 nM | GI50 [47]: 9500 nM | TGI [47]: > 50000 nM | GI50 [48]: 905 nM | TGI [48]: > 50000 nM | GI50 [49]: 556 nM | TGI [49]: > 50000 nM | GI50 [50]: 6310 nM | TGI [50]: > 50000 nM | GI50 [51]: 797 nM | TGI [51]: 23600 nM | GI50 [52]: 578 nM | TGI [52]: 2660 nM | GI50 [53]: 1930 nM | TGI [53]: > 50000 nM | GI50 [54]: 1130 nM | TGI [54]: > 50000 nM | GI50 [55]: 8460 nM | TGI [55]: > 50000 nM | GI50 [56]: 577 nM | TGI [56]: > 50000 nM
